Literature values, collected in patent US20190375786A1, “STABLE PEPTIDES AND METHODS OF USE THEREOF” (Fred Hutchinson Cancer Research Center, priority 2016, published 2019).
Positions of bridges follow the written chain, without caps; N, C: chain ends. Residues, ends and D or L forms follow the SMILES beside them.

Settings: oral administration; cited from earlier work

C[C@@H]1NC(=O)[C@@H]2CCCN2C(=O)[C@H](CC(N)=O)NC(=O)[C@@H]2CSSC[C@H](N)C(=O)N[C@H]3CSSC[C@H](NC1=O)C(=O)N[C@@H]([C@@H](C)O)C(=O)NCC(=O)N[C@H](C(=O)N[C@@H](Cc1ccc(O)cc1)C(=O)O)CSSC[C@H](NC(=O)[C@H](Cc1ccc(O)cc1)NC(=O)[C@H](CCC(=O)O)NC3=O)C(=O)N2 [linaclotide] (H-CCEYCCNPACTGCY-OH; disulfide 1-6, 2-10, 5-13)
systemic absorption into the plasma: not significantly systemically absorbed
